In patent US8592174B2, “Peptidase substrates” (bioMérieux, S.A., priority 2009, dated 2013):

Columns and labels:
Format in all cases: cell-based
[1] = tested on: Acinetobacter baumannii 0604029; assay: Peptidase detection on Columbia medium (Example 4); settings: 75 mg/l, 48 h 37° C.; for Growth: control C: ++
Excerpt: (§1) After homogenization, the media were distributed into 120-mm-squared dishes. A medium serving as a growth control (Columbia) and denoted C was also poured.

[2] = tested on: Bacillus subtilis 0204038; assay: Peptidase detection on Columbia medium (Example 4); settings: 75 mg/l, 48 h 37° C.; for Growth: control C: ++
Excerpt: as §1

[3] = tested on: Burkholderia cepacia 7507032; assay: Peptidase detection on Columbia medium (Example 4); settings: 75 mg/l, 48 h 37° C.; for Growth: control C: ++
Excerpt: as §1

Candida albicans 0801025 = assay: Peptidase detection on Columbia medium (Example 4); settings: 75 mg/l, 48 h 37° C.; for Growth: control C: ++
Excerpt: as §1

Candida glabrata 0408083 [4] = assay: Peptidase detection on Columbia medium (Example 4); settings: 75 mg/l, 48 h 37° C.; for Growth: control C: +
Excerpt: as §1

[5] = tested on: Citrobacter freundii 0006197; assay: Peptidase detection on Columbia medium (Example 4); settings: 75 mg/l, 48 h 37° C.; for Growth: control C: ++
Excerpt: as §1

[6] = tested on: Enterobacter cloacae 0604040; assay: Peptidase detection on Columbia medium (Example 4); settings: 75 mg/l, 48 h 37° C.; for Growth: control C: ++
Excerpt: as §1

[7] = tested on: Enterococcus faecalis 0008192; assay: Peptidase detection on Columbia medium (Example 4); settings: 75 mg/l, 48 h 37° C.; for Growth: control C: ++
Excerpt: as §1

[8] = tested on: Enterococcus faecium 0610021; assay: Peptidase detection on Columbia medium (Example 4); settings: 75 mg/l, 48 h 37° C.; for Growth: control C: ++
Excerpt: as §1

Escherichia coli 0002005 = assay: Peptidase detection on Columbia medium (Example 4); settings: 75 mg/l, 48 h 37° C.; for Growth: control C: ++
Excerpt: as §1

[9] = tested on: Klebsiella pneumoniae 0008009; assay: Peptidase detection on Columbia medium (Example 4); settings: 75 mg/l, 48 h 37° C.; for Growth: control C: ++
Excerpt: as §1

[10] = tested on: Listeria monocytogenes 8812049; assay: Peptidase detection on Columbia medium (Example 4); settings: 75 mg/l, 48 h 37° C.; for Growth: control C: ++
Excerpt: as §1

MRSA 0303033 [11] = assay: Peptidase detection on Columbia medium (Example 4); settings: 75 mg/l, 48 h 37° C.; for Growth: control C: ++
Excerpt: as §1

[12] = tested on: Morganella morganii 9207053; assay: Peptidase detection on Columbia medium (Example 4); settings: 75 mg/l, 48 h 37° C.; for Growth: control C: ++
Excerpt: as §1

[13] = tested on: Providencia rettgeri 0706064; assay: Peptidase detection on Columbia medium (Example 4); settings: 75 mg/l, 48 h 37° C.; for Growth: control C: ++
Excerpt: as §1

[14] = tested on: Pseudomonas aeruginosa 0001001; assay: Peptidase detection on Columbia medium (Example 4); settings: 75 mg/l, 48 h 37° C.; for Growth: control C: ++
Excerpt: as §1

[15] = tested on: Salmonella ser typhimurium 0801029; assay: Peptidase detection on Columbia medium (Example 4); settings: 75 mg/l, 48 h 37° C.; for Growth: control C: ++
Excerpt: as §1

[16] = tested on: Serratia marcescens 7303004; assay: Peptidase detection on Columbia medium (Example 4); settings: 75 mg/l, 48 h 37° C.; for Growth: control C: ++
Excerpt: as §1

[17] = tested on: Staphylococcus aureus 7811049; assay: Peptidase detection on Columbia medium (Example 4); settings: 75 mg/l, 48 h 37° C.; for Growth: control C: ++
Excerpt: as §1

[18] = tested on: Staphylococcus epidermidis 0203050; assay: Peptidase detection on Columbia medium (Example 4); settings: 75 mg/l, 48 h 37° C.; for Growth: control C: ++
Excerpt: as §1

[19] = tested on: Streptococcus pyogenes 9806380; assay: Peptidase detection on Columbia medium (Example 4); settings: 75 mg/l, 48 h 37° C.; for Growth: control C: ++
Excerpt: as §1

[20] = tested on: Yersinia enterocolitica 7605019; assay: Peptidase detection on Columbia medium (Example 4); settings: 75 mg/l, 48 h 37° C.; for Growth: control C: ++
Excerpt: as §1

[21] = tested on: Bacillus subtilis 0204038; assay: Peptidase detection on Columbia medium (Example 5); settings: 75 mg/l, 48 h 37° C.
Experimental: (§2) After homogenization, the media were distributed into Petri dishes 55 mm in diameter. A medium acting as a growth control (Columbia) and denoted C was also poured.
(§3) Twenty-two strains of microorganisms were inoculated with a 10 μl calibrated loop according to the three-quadrant streaking method using bacterial suspensions at 0.5 McFarland.

Candida glabrata 0408083 [22] = assay: Peptidase detection on Columbia medium (Example 5); settings: 75 mg/l, 48 h 37° C.
Experimental: as §2, §3

[23] = tested on: Citrobacter freundii 0006197; assay: Peptidase detection on Columbia medium (Example 5); settings: 75 mg/l, 48 h 37° C.
Experimental: as §2, §3

[24] = tested on: Enterobacter cloacae 0604040; assay: Peptidase detection on Columbia medium (Example 5); settings: 75 mg/l, 48 h 37° C.
Experimental: as §2, §3

MRSA 0303033 [25] = assay: Peptidase detection on Columbia medium (Example 5); settings: 75 mg/l, 48 h 37° C.
Experimental: as §2, §3

[26] = tested on: Serratia marcescens 7303004; assay: Peptidase detection on Columbia medium (Example 5); settings: 75 mg/l, 48 h 37° C.
Experimental: as §2, §3

[27] = tested on: Bacillus subtilis NCTC 9 372; assay: Peptidase detection on Columbia medium (Example 2); design: key to Growth: NG: No growth; 0.5: weak growth; 1: moderate growth; 2: good growth; key to Fluo. / Color / Color post-acid.: —: no color; settings: 40 mg in 400 ml Columbia; 24 h 37° C.
Experimental: (§4) The 6 media were distributed into Petri dishes 90 mm in diameter, in a proportion of 20 ml per dish.
(§5) Seventeen strains of microorganisms stemming from collections and belonging to various species of bacteria and yeasts are inoculated in spots of approximately 10 000 colony-forming units.
(§6) The media are incubated for 24 hours at 37° C., and then the colonies formed are examined visually, with or without the addition of acid and under a UV lamp at 365 nm.

[28] = tested on: Candida albicans ATCC 90 028; assay: Peptidase detection on Columbia medium (Example 2); design: key to Growth: NG: No growth; 0.5: weak growth; 1: moderate growth; 2: good growth; key to Fluo. / Color / Color post-acid.: —: no color; settings: 40 mg in 400 ml Columbia; 24 h 37° C.
Experimental: as §4, §5, §6

C[C@H](N)C(=O)Nc1ccc(C=Cc2cc[n+](C)c3ccccc23)cc1.Cl.[Cl-] [L-alanyl-4-(4′-amidostyryl)-N-methylquinolinium (dichloride)]
Color [1]: orange
Coloration strength [1]: ++
Growth [1]: ++
Color [2]: −
Coloration strength [2]: −
Growth [2]: ++
Color [3]: orange
Coloration strength [3]: +
Growth [3]: ++
Coloration strength (Candida albicans 0801025): −
Growth (Candida albicans 0801025): ++
Coloration strength (Candida glabrata 0408083 [4]): −
Growth (Candida glabrata 0408083 [4]): +
Color [5]: orange
Coloration strength [5]: +
Growth [5]: ++
Color [6]: orange
Coloration strength [6]: ++
Growth [6]: ++
Color [7]: orange
Coloration strength [7]: +
Growth [7]: ++
Color [8]: −
Coloration strength [8]: −
Growth [8]: ++
Color (Escherichia coli 0002005): orange
Coloration strength (Escherichia coli 0002005): ++
Growth (Escherichia coli 0002005): ++
Color [9]: orange
Coloration strength [9]: ++
Growth [9]: ++
Color [10]: orange
Coloration strength [10]: ++
Growth [10]: ++
Color (MRSA 0303033 [11]): orange
Coloration strength (MRSA 0303033 [11]): +
Growth (MRSA 0303033 [11]): ++
Color [12]: orange
Coloration strength [12]: ++
Growth [12]: ++
Color [13]: orange
Coloration strength [13]: +
Growth [13]: ++
Color [14]: orange
Coloration strength [14]: ++
Growth [14]: ++
Color [15]: orange
Coloration strength [15]: +
Growth [15]: ++
Color [16]: orange
Coloration strength [16]: ++
Growth [16]: ++
Coloration strength [17]: +
Growth [17]: ++
Color [18]: orange
Coloration strength [18]: ++
Growth [18]: ++
Color [19]: orange
Coloration strength [19]: +
Growth [19]: ++
Color [20]: orange
Coloration strength [20]: ++
Growth [20]: ++
Color [21]: orange
Coloration strength [21]: +
Growth ([21]; control C: ++): ++
Color (Candida glabrata 0408083 [22]): −
Coloration strength (Candida glabrata 0408083 [22]): −
Growth (Candida glabrata 0408083 [22]; control C: +): +
Color [23]: orange
Coloration strength [23]: ++
Growth ([23]; control C: ++): ++
Color [24]: orange
Coloration strength [24]: +
Growth ([24]; control C: ++): ++
Color (MRSA 0303033 [25]): orange
Coloration strength (MRSA 0303033 [25]): ++
Growth (MRSA 0303033 [25]; control C: ++): ++
Color [26]: orange
Coloration strength [26]: ++
Growth ([26]; control C: ++): ++

C[C@H](N)C(=O)N[C@@H](C)C(=O)N[C@@H](C)C(=O)Nc1ccc(C=Cc2cc[n+](C)c3ccccc23)cc1.Cl.[Cl-] [Tri-Ala-ASQM^+, L-alanyl-L-alanyl-L-alanyl-4-(4′-amidostyryl)-N-methylquinolinium (dichloride)]
Color [27]: —
Growth [27]: 2
Color [28]: —
Growth [28]: 2
Color [1]: orange
Coloration strength [1]: ++
Growth [1]: ++
Coloration strength [2]: −
Growth [2]: ++
Color [3]: orange
Coloration strength [3]: +
Growth [3]: ++
Growth (Candida albicans 0801025): +
Growth (Candida glabrata 0408083 [4]): −
Color [5]: orange
Coloration strength [5]: +
Growth [5]: ++
Color [6]: orange
Coloration strength [6]: ++
Growth [6]: ++
Color [7]: orange
Coloration strength [7]: +
Growth [7]: ++
Coloration strength [8]: −
Growth [8]: ++
Color (Escherichia coli 0002005): orange
Coloration strength (Escherichia coli 0002005): ++
Growth (Escherichia coli 0002005): ++
Color [9]: orange
Coloration strength [9]: ++
Growth [9]: ++
Color [10]: orange
Coloration strength [10]: ++
Growth [10]: ++
Color (MRSA 0303033 [11]): orange
Coloration strength (MRSA 0303033 [11]): +
Growth (MRSA 0303033 [11]): ++
Color [12]: orange
Coloration strength [12]: ++
Growth [12]: ++
Color [13]: orange
Coloration strength [13]: +
Growth [13]: ++
Color [14]: orange
Coloration strength [14]: ++
Growth [14]: ++
Color [15]: orange
Coloration strength [15]: +
Growth [15]: ++
Color [16]: orange
Coloration strength [16]: ++
Growth [16]: ++
Coloration strength [17]: +
Growth [17]: ++
Color [18]: orange
Coloration strength [18]: ++
Growth [18]: ++
Color [19]: orange
Coloration strength [19]: +
Growth [19]: ++
Color [20]: orange
Coloration strength [20]: ++
Growth [20]: ++
